Entries after “also recorded” stand apart in the source; their conditions may differ.
What was measured:
influenza A viruses = assay: Selectivity index summary (ratio between CC50 and EC50) on the viruses; format: cell-based, influenza A virus; conditions: summary over the viruses tested (FIG. 4)
[1] = test system: pandemic H1N1 virus (A/California/07/2009); format: cell-based, influenza A virus
[2] = test system: H5N2 A/Finch/England/2051/94; format: cell-based, influenza A virus
[3] = test system: H1N1 A/New Caledonia/20/99; format: cell-based, influenza A virus
H5N1 A/Turkey/582/2006 = format: cell-based, influenza A virus
H3N2 A/Moscow/10/99 = format: cell-based, influenza A virus
[4] = test system: H7N1 A/Chicken/Italy/2076/99; format: cell-based, influenza A virus
in vitro = conditions: human

## COc1ccc(OC)c(C(O)CNC(=O)CN)c1.Cl (racemic) [midodrine, Acetamide, 2-amino-N-[2-(2,5-dimethoxyphenyl)-2-hydroxyethyl]-monohydrochloride, (±)-]
Influenza A viruses
  inhibitor class by selectivity index (SI = CC50/EC50): moderate (a moderate inhibitor has an SI between 10 and 50)
[1]
  antiviral activity on pandemic H1N1 virus: characterized by antiviral activity; also recorded: inhibits the infectious cycle of all the viruses tested
[2]
  inhibition of the infectious cycle of H5N2 virus: inhibits the infectious cycle of all the viruses tested
[3]
  inhibition of the infectious cycle of H1N1 virus: inhibits the infectious cycle of all the viruses tested
H5N1 A/Turkey/582/2006
  inhibition of the infectious cycle of H5N1 virus: inhibits the infectious cycle of all the viruses tested
H3N2 A/Moscow/10/99
  inhibition of the infectious cycle of H3N2 virus: inhibits the infectious cycle of all the viruses tested

## CCN[C@H]1CN(CCCOC)S(=O)(=O)c2sc(S(N)(=O)=O)cc21 [brinzolamide, (R)-(+)-4-Ethylamino-2-(3-methoxypropyl)-3,4-dihydro-2H-thieno[3,2-e]-1,2-thiazine-6-sulfonamide-1,1-dioxide]
[4]
  inhibition of the infectious cycle of low-MOI H7N1 virus: inhibits primarily the infectious cycle
In vitro
  CC50: ≥ 666 µM
[1]
  antiviral activity on pandemic H1N1 virus: do not seem to have an impact
[3]
  inhibition of the infectious cycle of low-MOI H1N1 virus: inhibits primarily the infectious cycle
H3N2 A/Moscow/10/99
  inhibition of the infectious cycle of H3N2 virus: inhibits primarily the infectious cycle

## Cc1nccc2c1[nH]c1cc(O)ccc12 [harmol, 1-Methyl-9H-beta-carbolin-7-ol]
In vitro
  CC50: 95 µM
[1]
  antiviral activity on pandemic H1N1 virus: characterized by antiviral activity
  inhibition of the infectious cycle of low-MOI pandemic H1N1 virus: inhibits the infectious cycle
[2]
  inhibition of the infectious cycle of H5N2 virus: inhibits the infectious cycle
H5N1 A/Turkey/582/2006
  inhibition of the infectious cycle of H5N1 virus: inhibits the infectious cycle
H3N2 A/Moscow/10/99
  inhibition of the infectious cycle of H3N2 virus: inhibits the infectious cycle

## C1COC(NC(C2CC2)C2CC2)=N1 [rilmenidine]
In vitro
  CC50: 1120 µM
[1]
  antiviral activity on pandemic H1N1 virus: do not seem to have an impact
[2]
  inhibition of the infectious cycle of H5N2 virus: inhibits the infectious cycle
[3]
  inhibition of the infectious cycle of H1N1 virus: inhibits the infectious cycle
H3N2 A/Moscow/10/99
  inhibition of the infectious cycle of H3N2 virus: inhibits the infectious cycle

Source: US9433592B2, “Pharmaceutical or veterinary antiviral compositions” (priority 2009, dated 2016)
